Patent US6858714B2, “Cyclic GMP phosphodiesterase” (Incyte Corporation, priority 1997, dated 2005)

Legend:
PDE9A [1] = biological target: T1, PDE9A (Homo sapiens, UniProt O76083); assay: Effect of known PDE inhibitors on PDE9A activity (hydrolysis of 3H-cGMP); type: biochemical; conditions: cGMP as substrate, FIG. 5; for inhibition of PDE9A activity: up to 100 μM of inhibitor
T1 construct: A 1.8 kb region of PDE9A encoding the full length protein (nucleotides 61-1842) was amplified and cloned; made in house; host or cells: Sf9 insect cells (baculovirus, pFASTBAC)
T1 sequence (O76083 whole entry): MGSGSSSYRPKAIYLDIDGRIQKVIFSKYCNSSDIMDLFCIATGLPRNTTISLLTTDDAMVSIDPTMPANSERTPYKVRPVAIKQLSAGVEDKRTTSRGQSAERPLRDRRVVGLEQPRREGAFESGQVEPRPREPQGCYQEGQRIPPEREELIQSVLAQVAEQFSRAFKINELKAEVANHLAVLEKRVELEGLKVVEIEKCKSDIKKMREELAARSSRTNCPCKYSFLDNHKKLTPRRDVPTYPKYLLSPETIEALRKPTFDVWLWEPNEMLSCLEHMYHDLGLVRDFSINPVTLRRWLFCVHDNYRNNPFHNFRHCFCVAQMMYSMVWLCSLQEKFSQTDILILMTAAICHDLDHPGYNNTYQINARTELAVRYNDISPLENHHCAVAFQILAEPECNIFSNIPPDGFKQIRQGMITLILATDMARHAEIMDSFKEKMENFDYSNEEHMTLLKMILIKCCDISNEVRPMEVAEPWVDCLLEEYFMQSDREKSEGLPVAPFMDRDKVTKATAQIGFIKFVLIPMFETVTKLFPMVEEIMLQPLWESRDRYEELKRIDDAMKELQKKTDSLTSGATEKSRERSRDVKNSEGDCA
Procedure: A 1.8 kb region of PDE9A encoding the full length of the protein was cloned into the baculovirus transfer vector pFASTBAC, expressed in sf9 cells, and a cell lysate prepared from these cells for enzyme assays. […] PDE9A was not inhibited by up to 100 μM of rolipram (inhibitor of PDE4), dipyridamole (inhibitor of PDE2, 4, 5, and 6), SKF94120 (inhibitor of PDE3), vinpocetine (inhibitor of PDE1), or IBMX (non-specific PDE inhibitor). […] Of particular note is the expression of PDE9A in Crohn's disease.
PDE9A to be used for assay was prepared from transfected Sf9 cells. Cells were harvested by centrifugation, resuspended in homogenization buffer (20 mM Tris-HCl, 2 mM benzamidine, 1 mM EDTA, 0.25 M sucrose, 100 uM PMSF, pH 7.5 ) at 1×10^7 cells/ml, and disrupted using a Branson sonicating probe (3×10 second pulses). Cellular debris was removed by centrifugation at 14,000×g for 10 minutes. The supernatant was stored at −70° C.
PDE activity was assayed by measuring the conversion of ^3H-cGMP to ^3H-guanosine in the presence of PDE9A and 5′ nucleotidase. A one-step assay was run using a 100 uL assay containing 50 mM Tris-HCl pH 7.5, 10 mM MgCl^2, 0.1 unit 5′ nucleotidase (from Crotalus atrox venom), and 0.0064-2.0 uM ^3H-cGMP. The reaction was started by the addition of 25 μl of diluted enzyme supernatant. Reactions were run directly in mini Poly-Q scintillation vials (Beckman Instruments Inc., Fullerton Calif.). Assays were incubated at 37° C. for a time period that would yield less than 15% cGMP hydrolysis in order to avoid non-linearity associated with product inhibition. The reaction was stopped by the addition of 1 ml of Dowex AG1x8 (Cl form) resin (1:3 slurry). Three ml of scintillation fluid were added, and the vials were mixed. The resin in the vials was allowed to settle for 1 hr before counting. Soluble radioactivity associated with ^3H-guanosine was quantitated using a Beta scintillation counter. The amount of radioactivity recovered is proportional to the activity of PDE9A in the reaction.

PDE9A [2] = biological target: T1, PDE9A; assay: Kinetics of enzyme activity of recombinant PDE9A (Lineweaver-Burke analysis); type: biochemical; conditions: FIG. 3, read-out: Km of PDE9A for cGMP as substrate

| Compound | inhibition of PDE9A activity (PDE9A [1]) | also measured |
| --- | --- | --- |
| CC(C)Cn1c(=O)n(C)c(=O)c2[nH]cnc21 [IBMX] | not inhibited |  |
| Nc1nc2c(ncn2[C@@H]2O[C@@H]3COP(=O)(O)O[C@H]3[C@H]2O)c(=O)[nH]1 [cGMP] |  | Km (PDE9A [2]): 0.17 µM |
| CCCOc1ccccc1-c1nc2nn[nH]c2c(=O)[nH]1 [zaprinast] |  | IC50 (PDE9A [1]; recombinant PDE9A from Sf9 cell lysate, read-out: IC50 for inhibition of PDE9A): 35 µM |
| OCCN(CCO)c1nc(N2CCCCC2)c2nc(N(CCO)CCO)nc(N3CCCCC3)c2n1 [dipyridamole] | not inhibited |  |
| COc1ccc(C2CNC(=O)C2)cc1OC1CCCC1 (stereo not shown) [rolipram] | not inhibited |  |

The next lines start with results.

| inhibition of PDE9A activity (PDE9A [1]) | Compound | also measured |
| --- | --- | --- |
| not inhibited | CCOC(=O)C1=C[C@]2(CC)CCCN3CCc4c(n1c1ccccc41)[C@@H]32 [vinpocetine] |  |
| not inhibited | CC(=O)Nc1ccc(-c2c[nH]c(=O)cn2)cc1 [SKF94120] |  |
